# Laboratory results as given in PubChem BioAssay (NCI).
#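 Grown in 96-well plates, cells were treated for 48 hours with each compound at five concentrations. Insufficient inhibition: endpoint recorded as highest concentration tested. TGI marks complete inhibition of growth.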
# What was measured:
# Test in all cases: growth of human tumour cells (NCI), 48 h
# M19-MEL melanoma = system: M19-MEL melanoma
# XF 498 CNS = system: XF 498 CNS
# DMS 273 small cell lung = system: DMS 273 small cell lung
# DLD-1 colon = system: DLD-1 colon
# RXF-631 renal = system: RXF-631 renal
smiles,measurement,setting,value
OC(c1ccccc1)(c1ccccc1)c1ccccn1,TGI,M19-MEL melanoma,> 100 µM
same,TGI,XF 498 CNS,> 100 µM
same,TGI,DMS 273 small cell lung,> 100 µM
same,TGI,DLD-1 colon,> 100 µM
same,TGI,RXF-631 renal,> 100 µM
O=C(CCc1nnc2s/c(=C\c3ccccc3)c(=O)n12)Nc1cc(Cl)ccc1Cl,TGI,M19-MEL melanoma,> 100 µM
same,TGI,XF 498 CNS,> 100 µM
same,TGI,DMS 273 small cell lung,> 100 µM
same,TGI,DLD-1 colon,> 100 µM
same,TGI,RXF-631 renal,> 100 µM
COc1c(OC(C)=O)cc2c(OC(C)=O)c1CC(C)CC(OC)C(O)C(C)/C=C(\C)C(OC(N)=O)C(OC)/C=C\C=C(/C)C(=O)N2 (centres undefined),TGI,M19-MEL melanoma,> 100 µM
same,TGI,XF 498 CNS,> 100 µM
same,TGI,DMS 273 small cell lung,> 100 µM
same,TGI,DLD-1 colon,> 100 µM
same,TGI,RXF-631 renal,> 100 µM
N=C(N)n1ncc(Cl)c(Cl)c1=O,TGI,M19-MEL melanoma,3.77 µM
same,TGI,XF 498 CNS,3.86 µM
same,TGI,DMS 273 small cell lung,4.78 µM
same,TGI,DLD-1 colon,5.24 µM
same,TGI,RXF-631 renal,3.36 µM
CC1=C(C(=O)Nc2cccc(C(F)(F)F)c2)C(c2ccc(O)cc2)C(C(=O)Nc2cccc(C(F)(F)F)c2)=C(C)N1,TGI,M19-MEL melanoma,40.3 µM
same,TGI,XF 498 CNS,8.06 µM
same,TGI,DLD-1 colon,73.3 µM
same,TGI,RXF-631 renal,41.6 µM
COc1ccc(/C=C/c2cc(OC)c(O[Si](C)(C)C(C)(C)C)c(OC)c2)cc1,TGI,M19-MEL melanoma,> 100 µM
same,TGI,XF 498 CNS,> 100 µM
same,TGI,DMS 273 small cell lung,> 100 µM
same,TGI,DLD-1 colon,> 100 µM
same,TGI,RXF-631 renal,> 100 µM
C=C1C(=O)OC2CCCCC3OC3C12 (centres undefined),TGI,M19-MEL melanoma,35.1 µM
same,TGI,XF 498 CNS,24.7 µM
same,TGI,DMS 273 small cell lung,23.8 µM
same,TGI,DLD-1 colon,23.4 µM
same,TGI,RXF-631 renal,19.2 µM
CCOC(=O)C1=C(Nc2ccccc2)OC/C1=N\NC(=O)Cc1ccccc1,TGI,M19-MEL melanoma,> 50 µM
same,TGI,XF 498 CNS,> 50 µM
same,TGI,DLD-1 colon,> 50 µM
same,TGI,RXF-631 renal,> 50 µM
CC(=O)OC1(C#N)CC2OC1C1C2N1C(=O)c1ccccc1 (centres undefined),TGI,M19-MEL melanoma,> 100 µM
same,TGI,XF 498 CNS,> 100 µM
same,TGI,DLD-1 colon,> 100 µM
same,TGI,RXF-631 renal,> 100 µM
COC(=O)CCC(NC(=S)N/N=C(\C)c1ccccn1)C(=O)OC (centres undefined),TGI,M19-MEL melanoma,> 100 µM
same,TGI,XF 498 CNS,> 100 µM
same,TGI,DLD-1 colon,> 100 µM
same,TGI,RXF-631 renal,> 100 µM
Nc1nnc2nc(CC(=O)/C=C/c3ccccc3)c(=O)[nH]n12,TGI,M19-MEL melanoma,> 100 µM
same,TGI,XF 498 CNS,> 100 µM
same,TGI,DMS 273 small cell lung,> 100 µM
same,TGI,DLD-1 colon,> 100 µM
same,TGI,RXF-631 renal,> 100 µM
CCc1cccc(C(C)CC)c1N=C(NC(=O)c1ccccc1C(=O)NC(=Nc1c(CC)cccc1C(C)CC)SC)SC (centres undefined),TGI,M19-MEL melanoma,> 100 µM
same,TGI,XF 498 CNS,> 100 µM
same,TGI,DLD-1 colon,> 100 µM
same,TGI,RXF-631 renal,> 100 µM
O=C(c1cc(=O)c2ccc(O)cc2o1)c1ccc(Cl)cc1Cl,TGI,M19-MEL melanoma,> 100 µM
same,TGI,XF 498 CNS,62.6 µM
same,TGI,DMS 273 small cell lung,> 31.6 µM
same,TGI,DLD-1 colon,> 100 µM
same,TGI,RXF-631 renal,> 100 µM
Cc1ccc(SSCCCS(=O)O)cc1,TGI,M19-MEL melanoma,> 100 µM
same,TGI,XF 498 CNS,> 100 µM
same,TGI,DMS 273 small cell lung,79 µM
same,TGI,DLD-1 colon,> 100 µM
same,TGI,RXF-631 renal,> 100 µM
C/C(CN1C(=O)c2ccccc2C1=O)=N\NS(=O)(=O)c1ccccc1,TGI,M19-MEL melanoma,> 100 µM
same,TGI,DMS 273 small cell lung,> 100 µM
same,TGI,DLD-1 colon,> 100 µM
same,TGI,RXF-631 renal,> 100 µM
